Measurements: US20160317525A1 (Teva Pharmaceutical Industries, Ltd., priority 2013, published 2016)

Columns and labels:
[1] = tested on: MOG induced EAE; assay: Laquinimod combined with teriflunomide in MOG induced EAE (Example 2); assay type: in vivo, mice of the C57BL/6 strain; conditions: Day 1-30; for GMS: group mean score; for MMS: mean maximal score; for % inhibition (GMS) / % inhibition (Incidence) / % inhibition (MMS): vs vehicle
[2] = tested on: experimental autoimmune encephalomyelitis; conditions: in mice; Merill et al., 2009; cited from earlier work
[3] = 7 mg/day and 14 mg/day; O'Connor et al. 2011; cited from earlier work
[4] = biological target: CYP2C9 (Homo sapiens, UniProt P11712); conditions: O'Connor et al. 2006 and Warneke et al. 2009; cited from earlier work
CYP2C9, sequence (P11712 whole entry): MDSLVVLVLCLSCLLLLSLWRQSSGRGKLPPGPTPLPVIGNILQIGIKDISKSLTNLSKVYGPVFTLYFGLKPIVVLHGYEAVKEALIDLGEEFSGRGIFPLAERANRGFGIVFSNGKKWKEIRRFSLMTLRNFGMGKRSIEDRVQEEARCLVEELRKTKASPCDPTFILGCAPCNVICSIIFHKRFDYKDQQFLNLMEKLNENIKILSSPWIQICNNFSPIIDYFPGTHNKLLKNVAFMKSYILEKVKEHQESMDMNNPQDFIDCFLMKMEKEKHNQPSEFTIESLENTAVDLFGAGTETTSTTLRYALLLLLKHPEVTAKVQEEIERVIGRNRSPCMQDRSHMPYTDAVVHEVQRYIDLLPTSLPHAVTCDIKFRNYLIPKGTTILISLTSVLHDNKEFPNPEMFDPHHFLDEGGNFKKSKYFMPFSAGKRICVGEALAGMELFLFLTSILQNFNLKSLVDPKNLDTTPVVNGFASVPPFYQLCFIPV

[5] = animal studies; cited from earlier work

CCN(C(=O)c1c(O)c2c(Cl)cccc2n(C)c1=O)c1ccccc1 [Laquinimod, 5-chloro-N-ethyl-4-hydroxy-1-methyl-2-oxo-N-phenyl-1,2-dihydroquinoline-3-carboxamide]
Duration ([1]; Laquinimod 5 mg/kg/day gavage): 5.7 ± 5.1 days | Incidence ([1]; Laquinimod 5 mg/kg/day gavage): 9/15 | Mortality ([1]; Laquinimod 5 mg/kg/day gavage): 0/15 | Onset ([1]; Laquinimod 5 mg/kg/day gavage): 20.5 ± 6.6 days | Duration ([1]; Laquinimod 25 mg/kg/day gavage): 1.3 ± 3.5 days | Incidence ([1]; Laquinimod 25 mg/kg/day gavage): 2/15 | Mortality ([1]; Laquinimod 25 mg/kg/day gavage): 0/15 | Onset ([1]; Laquinimod 25 mg/kg/day gavage): 26.3 ± 4.4 days | GMS ([1]; Laquinimod 5 mg/kg/day gavage): 1.02 ± 1.01 | GMS ([1]; Laquinimod 25 mg/kg/day gavage): 0.18 ± 0.52 | MMS ([1]; Laquinimod 5 mg/kg/day gavage): 1.9 ± 1.8 | MMS ([1]; Laquinimod 25 mg/kg/day gavage): 0.4 ± 1.1 | % inhibition (GMS) ([1]; Laquinimod 5 mg/kg/day gavage): 58.4% | % inhibition (Incidence) ([1]; Laquinimod 5 mg/kg/day gavage): 35.7% | % inhibition (MMS) ([1]; Laquinimod 5 mg/kg/day gavage): 45.7% | % inhibition (GMS) ([1]; Laquinimod 25 mg/kg/day gavage): 92.7% | % inhibition (Incidence) ([1]; Laquinimod 25 mg/kg/day gavage): 85.7% | % inhibition (MMS) ([1]; Laquinimod 25 mg/kg/day gavage): 88.6%

C/C(O)=C(\C#N)C(=O)Nc1ccc(C(F)(F)F)cc1 [Teriflunomide, (2Z)-2-cyano-3-hydroxy-N-[4-(trifluoromethyl)phenyl]but-2-enamide]
Duration ([1]; Teriflunomide 3 mg/kg gavage): 11.6 ± 2.3 days | Incidence ([1]; Teriflunomide 3 mg/kg gavage): 15/15 | Mortality ([1]; Teriflunomide 3 mg/kg gavage): 0/15 | Onset ([1]; Teriflunomide 3 mg/kg gavage): 14.0 ± 1.5 days | Duration ([1]; Teriflunomide 10 mg/kg gavage): 7.5 ± 5.5 days | Incidence ([1]; Teriflunomide 10 mg/kg gavage): 12/15 | Mortality ([1]; Teriflunomide 10 mg/kg gavage): 0/15 | Onset ([1]; Teriflunomide 10 mg/kg gavage): 18.3 ± 6.4 days | GMS ([1]; Teriflunomide 3 mg/kg gavage): 2.34 ± 0.65 | GMS ([1]; Teriflunomide 10 mg/kg gavage): 1.40 ± 1.18 | MMS ([1]; Teriflunomide 3 mg/kg gavage): 3.7 ± 0.6 | MMS ([1]; Teriflunomide 10 mg/kg gavage): 2.4 ± 1.7 | % inhibition (GMS) ([1]; Teriflunomide 3 mg/kg gavage): 4.5% | % inhibition (GMS) ([1]; Teriflunomide 10 mg/kg gavage): 42.9% | % inhibition (Incidence) ([1]; Teriflunomide 10 mg/kg gavage): 14.3% | % inhibition (MMS) ([1]; Teriflunomide 10 mg/kg gavage): 31.4% | minimal effective dose [2]: 3 mg/kg | annualized relapse rate versus the placebo [3]: reduce the annualized relapse rate | CYP2C9 inhibition [4]: inhibit CYP2C9 | teratogenicity [5]: teratogenic
